Data published in ChEMBL document CHEMBL4177643, “Trisubstituted purine inhibitors of PDGFRα and their antileukemic activity in the human eosinophilic cell line EOL-1” (Bioorg Med Chem, 2017).

Legend:
[1] = system: EOL1; assay: Cell cycle arrest in human EOL-1 cells assessed as G1/G2-M ratio at GI50 concentration after 24 hrs by propidium iodide staining-based flow cytometry relative to control; format: functional
[2] = system: K562; assay: Cell cycle arrest in human K562 cells assessed as G1/G2-M ratio at GI50 concentration after 24 hrs by propidium iodide staining-based flow cytometry relative to control; format: functional
[3] = system: BT-474; assay: Cytotoxicity against human BT474 cells assessed as growth inhibition after 72 hrs by calcein-AM dye based fluorescence assay; format: functional; conditions: BT-474, 72 h
[4] = system: MCF7; assay: Cytotoxicity against human MCF7 cells assessed as growth inhibition after 72 hrs by calcein-AM dye based fluorescence assay; format: functional; conditions: MCF7, 72 h
[5] = molecular target: Platelet-derived growth factor receptor alpha (Homo sapiens, UniProt P16234); assay: Inhibition of recombinant human N-terminal GST-His6 tagged PDGFRalpha (Q551 to L1089 residues) expressed in Sf9 insect cells using poly(Ala,Glu,Lys,Tyr)6:2:5:1 hydrobromide as substrate in presence of [gamma-33P]ATP
Sequence of Platelet-derived growth factor receptor alpha (P16234 whole entry, the tested form may be a part): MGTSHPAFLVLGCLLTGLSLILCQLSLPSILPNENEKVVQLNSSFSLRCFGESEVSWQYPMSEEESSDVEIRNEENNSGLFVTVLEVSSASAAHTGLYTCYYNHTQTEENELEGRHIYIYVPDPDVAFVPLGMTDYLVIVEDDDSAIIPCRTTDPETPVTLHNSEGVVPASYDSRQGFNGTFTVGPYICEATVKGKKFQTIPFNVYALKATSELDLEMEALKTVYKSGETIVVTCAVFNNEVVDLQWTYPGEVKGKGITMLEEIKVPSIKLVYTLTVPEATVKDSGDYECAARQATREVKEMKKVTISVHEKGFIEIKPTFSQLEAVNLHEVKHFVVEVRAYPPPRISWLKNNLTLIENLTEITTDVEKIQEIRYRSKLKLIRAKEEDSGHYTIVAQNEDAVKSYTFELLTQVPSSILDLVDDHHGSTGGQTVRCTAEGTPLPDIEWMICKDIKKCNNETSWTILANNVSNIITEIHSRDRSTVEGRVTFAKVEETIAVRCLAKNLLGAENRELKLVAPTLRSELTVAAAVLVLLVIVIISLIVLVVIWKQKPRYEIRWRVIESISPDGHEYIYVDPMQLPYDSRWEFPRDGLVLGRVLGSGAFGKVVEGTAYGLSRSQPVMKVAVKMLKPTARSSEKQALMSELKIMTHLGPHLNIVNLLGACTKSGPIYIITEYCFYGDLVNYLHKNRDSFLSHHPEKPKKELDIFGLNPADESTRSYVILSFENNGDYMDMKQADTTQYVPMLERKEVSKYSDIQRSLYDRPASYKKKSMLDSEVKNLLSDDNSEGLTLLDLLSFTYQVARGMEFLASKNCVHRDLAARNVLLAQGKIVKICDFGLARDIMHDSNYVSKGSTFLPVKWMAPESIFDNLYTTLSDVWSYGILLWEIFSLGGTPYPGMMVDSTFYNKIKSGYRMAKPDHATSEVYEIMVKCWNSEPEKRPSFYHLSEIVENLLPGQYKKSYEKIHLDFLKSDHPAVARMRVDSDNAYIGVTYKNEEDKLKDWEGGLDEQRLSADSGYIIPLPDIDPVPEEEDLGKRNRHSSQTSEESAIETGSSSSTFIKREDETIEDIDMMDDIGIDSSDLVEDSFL

[6] = system: HCC827; assay: Cell cycle arrest in human HCC827 cells assessed as G1/G2-M ratio at GI50 concentration after 24 hrs by propidium iodide staining-based flow cytometry relative to control; format: functional
[7] = system: K562; assay: Cytotoxicity against human K562 cells assessed as growth inhibition after 72 hrs by calcein-AM dye based fluorescence assay; format: functional; conditions: K562, 72 h
[8] = system: HCC827; assay: Cytotoxicity against human HCC827 cells assessed as growth inhibition after 72 hrs by calcein-AM dye based fluorescence assay; format: functional; conditions: HCC827, 72 h
[9] = system: EOL1; assay: Cytotoxicity against human EOL-1 cells assessed as growth inhibition after 72 hrs by calcein-AM dye based fluorescence assay; format: functional; conditions: EOL1, 72 h
[10] = molecular target: Cyclin-dependent kinase 2/cyclin E1 (Homo sapiens, UniProt P24941); assay: Inhibition of CDK2/cyclin E (unknown origin) expressed in baculovirus infected insect Sf9 cells using histone H1 as substrate in presence of [gamma-33P]ATP

Row | Compound | Ratio [1] | Ratio [2] | GI50 [3] | GI50 [4] | IC50 [5] | Ratio [6] | GI50 [7] | GI50 [8] | GI50 [9] | IC50 [10]
1 | CC(C)CCn1cnc2c(Nc3ccccc3)nc(N[C@H]3CC[C@H](N)CC3)nc21 | 1.67 | 1.2 | 6.4 µM | 5.4 µM | 0.096 µM | 0.39 | 3.5 µM | 21.7 µM | 0.01 µM | 0.627 µM
2 | CCCCCCn1cnc2c(Nc3cc(OC)cc(OC)c3)nc(N[C@H]3CC[C@H](N)CC3)nc21 | 3.78 | 1.4 | 3.7 µM | 3.5 µM | 1.41 µM | 9.67 | 1.9 µM | 9.1 µM | 0.38 µM | 0.68 µM
3 | COc1ccc(Nc2nc(N[C@H]3CC[C@H](N)CC3)nc3c2ncn3CCC(C)C)c(OC)c1 | 1.65 | 1 | 7.9 µM | 6.3 µM | 3.2 µM | 23.09 | 5.5 µM | 32.9 µM | 0.63 µM | 5.97 µM
4 | CCCCn1cnc2c(Nc3ccc(Cl)cc3)nc(N[C@H]3CC[C@H](N)CC3)nc21 | 6.43 | 1.52 | 7.3 µM | 2.1 µM | 0.06 µM | 0.28 | 2.7 µM | 10.8 µM | 0.05 µM | 0.117 µM
5 | CCn1cnc2c(Nc3cccc(Cl)c3)nc(N[C@@H]3CCCC[C@@H]3N)nc21 | 1.28 | 0.48 | 5.4 µM | 3.3 µM | > 20 µM | 0.29 | 4.8 µM | 12.2 µM | 0.99 µM | 0.017 µM
6 | CCCCn1cnc2c(Nc3cc(OC)cc(OC)c3)nc(N[C@H]3CC[C@H](N)CC3)nc21 | 1.3 | 0.82 | 15.6 µM | 4.5 µM | 1.5 µM | 1.35 | 2.4 µM | 20.1 µM | 0.37 µM | 0.442 µM
7 | CC(C)CCn1cnc2c(Nc3ccc(O)cc3)nc(N[C@H]3CC[C@H](N)CC3)nc21 | 1.17 | 0.73 | 7.7 µM | 3.1 µM | 0.15 µM | 2.71 | 4.6 µM | 14.4 µM | 0.03 µM | 0.49 µM
8 | CCCCCCn1cnc2c(Nc3ccc(Cl)cc3)nc(N[C@H]3CC[C@H](N)CC3)nc21 | 4.61 | 0.88 | 5.5 µM | 4.2 µM | 0.156 µM | 5.2 | 2.1 µM | 11.7 µM | 0.44 µM | 0.433 µM
9 | CCCCCCn1cnc2c(Nc3cccc(Cl)c3)nc(N[C@H]3CC[C@H](N)CC3)nc21 | 1.86 | 0.79 | 5.1 µM | 2.7 µM | 0.195 µM | 7.37 | 2.3 µM | 10.2 µM | 0.31 µM | 0.5 µM
10 | N[C@H]1CC[C@H](Nc2nc(Nc3cccc(Cl)c3)c3ncn(Cc4ccccc4)c3n2)CC1 | 0.99 | 1.76 | 10.2 µM | 3.6 µM | 5.1 µM | 10.37 | 3 µM | 13.7 µM | 0.38 µM | 2.83 µM
11 | CC(C)=CCn1cnc2c(Nc3cccc(Cl)c3)nc(N[C@H]3CC[C@H](N)CC3)nc21 | 3.1 | 0.75 | 7 µM | 4.2 µM | 0.187 µM | 2.69 | 3.5 µM | 13.5 µM | 0.08 µM | 0.227 µM
12 | CC(C)CCn1cnc2c(NCc3cccc(Cl)c3)nc(N[C@H]3CC[C@H](N)CC3)nc21 | 1.77 | 1.85 | 6.6 µM | 4.7 µM | > 20 µM | 2.5 | 3.1 µM | 16.7 µM | 1.33 µM | 0.306 µM
